Data: the supplement of paper PMC6045584
± gives the standard deviation of the averaged measurements.

Assays:
[1] = compound: CCCCCCCCCCCCCCCC(=O)Nc1ccn([C@@H]2O[C@H](CO)[C@@H](O)[C@@H]2C#N)c(=O)n1 [SAPACITABINE]; assay: surviving fraction relative to DMSO-only wells; higher = less growth inhibition; conditions: exposure time: 5 days
In short: (§1)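 Tumour cell lines were grown to log phase and seeded at 250–500 cells per well in 384-well plates. They were exposed continuously to inhibitors at 0.5, 1, 5, 10, 50, 100, 500 and 1000 nM for five days, beginning 24 hours after seeding. Surviving fraction is CellTiter-Glo luminescence normalised to the median of DMSO-only wells.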

[2] = compound: Nc1nc2[nH]cnc2c(=S)[nH]1 [TIOGUANINE]; assay: as above; conditions: exposure time: 5 days
In short: as §1

Row | Test System | surviving fraction ([1]; 0.5 nM) | surviving fraction ([1]; 1 nM) | surviving fraction ([1]; 5 nM) | surviving fraction ([1]; 10 nM) | surviving fraction ([1]; 50 nM) | surviving fraction ([1]; 100 nM) | surviving fraction ([1]; 500 nM) | surviving fraction ([1]; 1000 nM) | surviving fraction ([2]; 0.5 nM) | surviving fraction ([2]; 1 nM) | surviving fraction ([2]; 5 nM) | surviving fraction ([2]; 10 nM) | surviving fraction ([2]; 50 nM) | surviving fraction ([2]; 100 nM) | surviving fraction ([2]; 500 nM) | surviving fraction ([2]; 1000 nM)
1 | MDAMB134 BREAST | 0.689 ± 0.09 | 0.627 ± 0.083 | 0.65 ± 0.046 | 0.7515 ± 0.0035 | 0.785 ± 0.036 | 0.821 ± 0.11 | 0.817 ± 0.058 | 0.916 ± 0.054 | 0.993 ± 0.11 | 1.04 ± 0.12 | 0.909 ± 0.017 | 0.928 ± 0.11 | 1.04 ± 0.0028 | 1.1 ± 0.17 | 0.88 ± 0.049 | 0.858 ± 0.073
2 | DU4475 BREAST | 0.637 ± 0.062 | 0.863 ± 0.13 | 0.743 ± 0.051 | 0.699 ± 0.12 | 0.655 ± 0.077 | 0.458 ± 0.049 | 0.16 ± 0.033 | 0.0713 ± 0.018 | 0.746 ± 0.054 | 1 ± 0.31 | 0.784 ± 0.2 | 0.798 ± 0.17 | 0.687 ± 0.23 | 0.743 ± 0.24 | 0.721 ± 0.4 | 0.704 ± 0.29
3 | OS25HAL BONE | 0.868 ± 0.022 | 0.8983 ± 0.0076 | 0.834 ± 0.0066 | 0.855 ± 0.059 | 0.974 ± 0.036 | 0.925 ± 0.015 | 0.293 ± 0.019 | 0.15 ± 0.014 | 0.943 ± 0.015 | 0.951 ± 0.017 | 0.967 ± 0.0017 | 0.933 ± 0.027 | 1 ± 0.024 | 1.01 ± 0.033 | 1.002 ± 0.0066 | 0.955 ± 0.032
4 | SYO1 SYNOVIAL | 0.83 ± 0.07 | 0.689 ± 0.019 | 0.737 ± 0.016 | 0.343 ± 0.029 | 0.48 ± 0.022 | 0.269 ± 0.0028 | 0.0989 ± 0.0067 | 0.0679 ± 0.0022 | 0.941 ± 0.043 | 0.925 ± 0.042 | 0.917 ± 0.075 | 0.896 ± 0.021 | 0.785 ± 0.029 | 0.645 ± 0.043 | 0.411 ± 0.022 | 0.354 ± 0.028
5 | SG27 HEADNECK | 1.05 ± 0.027 | 1.01 ± 0.041 | 1 ± 0.16 | 0.731 ± 0.054 | 0.97 ± 0.021 | 0.975 ± 0.075 | 0.999 ± 0.025 | 0.885 ± 0.022 | 0.982 ± 0.054 | 0.995 ± 0.12 | 1.04 ± 0.091 | 0.984 ± 0.13 | 1 ± 0.089 | 1.02 ± 0.12 | 1.11 ± 0.024 | 0.953 ± 0.13
6 | S68 BREAST | 0.821 ± 0.029 | 0.642 ± 0.021 | 0.675 ± 0.066 | 0.617 ± 0.094 | 0.64 ± 0.22 | 0.462 ± 0.039 | 0.296 ± 0.032 | 0.284 ± 0.02 | 1.2 ± 0.1 | 0.975 ± 0.046 | 0.981 ± 0.04 | 0.941 ± 0.11 | 1.1 ± 0.18 | 1.04 ± 0.097 | 1.05 ± 0.14 | 1.04 ± 0.27
7 | A549 LUNG | 0.906 ± 0.026 | 0.906 ± 0.023 | 0.908 ± 0.021 | 0.906 ± 0.013 | 0.87 ± 0.022 | 0.666 ± 0.035 | 0.416 ± 0.001 | 0.308 ± 0.034 | 0.946 ± 0.045 | 0.955 ± 0.025 | 0.96 ± 0.046 | 0.952 ± 0.051 | 0.976 ± 0.045 | 0.999 ± 0.064 | 1.01 ± 0.038 | 0.973 ± 0.056
8 | MDAMB157 BREAST | 0.911 ± 0.034 | 0.859 ± 0.058 | 0.806 ± 0.077 | 0.755 ± 0.025 | 0.632 ± 0.069 | 0.619 ± 0.02 | 0.446 ± 0.02 | 0.306 ± 0.036 | 0.867 ± 0.072 | 0.857 ± 0.052 | 0.958 ± 0.013 | 0.921 ± 0.071 | 0.986 ± 0.078 | 0.961 ± 0.085 | 0.88 ± 0.055 | 0.89 ± 0.039
9 | SG31 HEADNECK | 0.933 ± 0.053 | 0.946 ± 0.043 | 0.814 ± 0.079 | 0.464 ± 0.015 | 0.919 ± 0.071 | 0.947 ± 0.16 | 0.792 ± 0.072 | 0.642 ± 0.033 | 0.97 ± 0.023 | 1 ± 0.085 | 1 ± 0.16 | 1.01 ± 0.18 | 0.986 ± 0.073 | 0.871 ± 0.1 | 1.2 ± 0.25 | 0.928 ± 0.17
10 | BT549 BREAST | 0.831 ± 0.065 | 0.869 ± 0.068 | 0.809 ± 0.027 | 0.695 ± 0.026 | 0.508 ± 0.022 | 0.367 ± 0.029 | 0.16 ± 0.044 | 0.125 ± 0.034 | 1.04 ± 0.17 | 1.05 ± 0.22 | 1.09 ± 0.12 | 1.12 ± 0.11 | 1.17 ± 0.14 | 0.917 ± 0.35 | 0.86 ± 0.42 | 0.996 ± 0.24
11 | T47D BREAST | 0.9004 ± 0.0044 | 0.871 ± 0.029 | 0.911 ± 0.078 | 0.825 ± 0.035 | 0.961 ± 0.06 | 0.918 ± 0.036 | 0.649 ± 0.0094 | 0.519 ± 0.039 | 1.03 ± 0.025 | 0.984 ± 0.038 | 0.964 ± 0.016 | 0.998 ± 0.029 | 1.08 ± 0.045 | 1.06 ± 0.072 | 1.03 ± 0.061 | 0.978 ± 0.011
12 | SCC36 HEADNECK | 0.776 ± 0.055 | 0.793 ± 0.048 | 0.815 ± 0.05 | 0.797 ± 0.11 | 1.02 ± 0.16 | 0.939 ± 0.092 | 0.737 ± 0.064 | 0.577 ± 0.0091 | 1.03 ± 0.034 | 1.09 ± 0.028 | 1.16 ± 0.074 | 1.18 ± 0.078 | 1.24 ± 0.082 | 1.12 ± 0.091 | 1.13 ± 0.11 | 1.06 ± 0.1
13 | 22RV1 PROSTATE | 0.89 ± 0.094 | 1.06 ± 0.16 | 0.894 ± 0.042 | 0.8687 ± 0.0045 | 0.746 ± 0.12 | 0.692 ± 0.099 | 0.333 ± 0.029 | 0.199 ± 0.034 | 0.97 ± 0.042 | 0.971 ± 0.042 | 0.99 ± 0.049 | 0.999 ± 0.0061 | 1.06 ± 0.067 | 0.99 ± 0.039 | 0.988 ± 0.079 | 0.94 ± 0.042
14 | 93VU HEADNECK | 0.75 ± 0.041 | 0.764 ± 0.051 | 0.862 ± 0.059 | 0.849 ± 0.16 | 1.02 ± 0.026 | 0.927 ± 0.049 | 0.74 ± 0.086 | 0.611 ± 0.017 | 0.831 ± 0.039 | 0.872 ± 0.088 | 1.03 ± 0.082 | 1.08 ± 0.094 | 1.06 ± 0.015 | 1.06 ± 0.11 | 0.798 ± 0.042 | 0.768 ± 0.081
15 | CADOES1 SOFT TISSUE | 1.04 ± 0.053 | 1.03 ± 0.022 | 0.915 ± 0.11 | 0.857 ± 0.074 | 0.553 ± 0.075 | 0.209 ± 0.066 | 0.0497 ± 0.0072 | 0.0437 ± 0.0035 | 0.965 ± 0.12 | 0.922 ± 0.059 | 0.93 ± 0.067 | 0.955 ± 0.045 | 0.989 ± 0.15 | 0.952 ± 0.097 | 0.842 ± 0.095 | 0.78 ± 0.048
16 | HELA CERVIX | 0.847 ± 0.031 | 0.843 ± 0.033 | 0.837 ± 0.027 | 0.819 ± 0.018 | 0.954 ± 0.064 | 1.02 ± 0.013 | 0.826 ± 0.066 | 0.794 ± 0.035 | 0.998 ± 0.074 | 1.03 ± 0.053 | 0.994 ± 0.015 | 0.997 ± 0.055 | 1.06 ± 0.024 | 1.14 ± 0.019 | 1.14 ± 0.059 | 1.21 ± 0.056
17 | MFM223 BREAST | 0.839 ± 0.092 | 0.82 ± 0.11 | 0.83 ± 0.089 | 0.8 ± 0.045 | 0.933 ± 0.12 | 0.939 ± 0.026 | 0.903 ± 0.074 | 0.77 ± 0.1 | 1.01 ± 0.13 | 0.997 ± 0.062 | 1.09 ± 0.037 | 1.041 ± 0.009 | 1.13 ± 0.031 | 1.13 ± 0.045 | 1.05 ± 0.074 | 1 ± 0.068
18 | CHLA90 AUTONOMIC GANGLIA | 0.843 ± 0.099 | 0.692 ± 0.038 | 0.797 ± 0.052 | 0.235 ± 0.019 | 0.889 ± 0.092 | 0.755 ± 0.057 | 0.641 ± 0.042 | 0.212 ± 0.038 | 0.95 ± 0.029 | 0.99 ± 0.04 | 1 ± 0.038 | 0.948 ± 0.034 | 0.96 ± 0.043 | 0.913 ± 0.08 | 0.88 ± 0.057 | 0.912 ± 0.048
19 | 143B BONE | 1.03 ± 0.067 | 1.05 ± 0.029 | 1.08 ± 0.069 | 1.06 ± 0.03 | 1.08 ± 0.047 | 1.12 ± 0.098 | 1.05 ± 0.079 | 0.942 ± 0.05 | 0.986 ± 0.015 | 1.01 ± 0.018 | 0.993 ± 0.025 | 0.999 ± 0.0071 | 0.9995 ± 0.0092 | 1.01 ± 0.028 | 0.904 ± 0.0014 | 0.707 ± 0.041
20 | SCC90 HEADNECK | 0.88 ± 0.089 | 0.794 ± 0.074 | 0.862 ± 0.011 | 0.848 ± 0.053 | 1.06 ± 0.13 | 0.953 ± 0.087 | 0.853 ± 0.015 | 0.999 ± 0.064 | 0.874 ± 0.047 | 0.873 ± 0.057 | 1.16 ± 0.12 | 1.09 ± 0.12 | 1.03 ± 0.17 | 1.08 ± 0.15 | 0.86 ± 0.045 | 0.743 ± 0.099
21 | SG28 HEADNECK | 0.756 ± 0.14 | 0.629 ± 0.18 | 0.721 ± 0.26 | 0.216 ± 0.099 | 0.996 ± 0.12 | 0.864 ± 0.054 | 0.934 ± 0.11 | 0.422 ± 0.0014 | 1.07 ± 0.045 | 1.05 ± 0.14 | 1.01 ± 0.14 | 0.994 ± 0.076 | 1.06 ± 0.089 | 1.05 ± 0.12 | 1.02 ± 0.038 | 1.14 ± 0.082
